Data taken from ChEMBL document CHEMBL4651402, “Screening of ~5500 FDA-approved drugs and clinical candidates for anti-SARS-CoV-2 activity” (2021).

Test system: SARS-CoV-2
Assay: microbe, parasite or virus in culture
Settings: Severe acute respiratory syndrome coronavirus 2, Vero C1008, 48 h

SMILES	IC50	IC50 (read-out: pIC50 (converted))
CO[C@H]1C[C@H](O[C@H]2[C@H](C)[C@@H](O[C@@H]3O[C@H](C)C[C@H](N(C)C)[C@H]3OC(C)=O)[C@@H](C)C[C@@]3(CO3)C(=O)[C@H](C)[C@H](OC(C)=O)[C@@H](C)[C@@H](C)OC(=O)[C@@H]2C)O[C@@H](C)[C@@H]1OC(C)=O	> 20 µM	> 20 µM
N#Cc1ccccc1-c1cc(-c2ccccn2)cn(-c2ccccc2)c1=O	> 20 µM	> 20 µM
COC(=O)C1=C(C)NC(C)=C(C(=O)OCCCN2CCC(c3ccccc3)(c3ccccc3)CC2)C1c1cccc([N+](=O)[O-])c1 (configuration not stated)	> 20 µM	> 20 µM
NCC(=O)c1ccccc1	> 20 µM	> 20 µM
C[C@@H]1O[C@@H](O[C@@H]2C=C3CCC4C(CC[C@]5(C)[C@@H](c6ccc(=O)oc6)CC[C@]45O)[C@@]3(C)CC2)[C@H](O)[C@H](O)[C@H]1O (some centres not stated)	> 20 µM	> 20 µM
CCCCCCCCCCCCCCCC(=O)OCC(NC(=O)C(Cl)Cl)C(O)c1ccc([N+](=O)[O-])cc1 (configuration not stated)	> 20 µM	> 20 µM
COC(=O)C1=COC(C)C2CN3CCc4c([nH]c5ccccc45)C3CC12 (configuration not stated)	> 20 µM	> 20 µM
CC(C)(C)c1cc2c(cc1Cl)C=C(C(=O)O)C(C(F)(F)F)O2 (configuration not stated)	> 20 µM	> 20 µM
Nc1ncnc2c1ncn2C1OC(COP(=O)(O)O)C(O)C1O (configuration not stated)	> 20 µM	> 20 µM
CC12CCC(C[N+](C)(CCC[N+](C)(C)C)C1)C2(C)C (configuration not stated)	> 20 µM	> 20 µM
NCCCN	> 20 µM	> 20 µM
O=c1oc2cc(O)ccc2c2ccc(O)cc12	> 20 µM	> 20 µM
NC(=O)NC(CCC(=O)O)C(=O)O (configuration not stated)	> 20 µM	> 20 µM
COc1ccc(C(=O)OC2C[C@H]3CC[C@H](C2)N3C)cc1OC (some centres not stated)	> 20 µM	> 20 µM
Nc1nc(O)c2c(n1)NCC(CNc1ccc(C(=O)N[C@@H](CCC(=O)O)C(=O)O)cc1)N2 (some centres not stated)	> 20 µM	> 20 µM
OC1CCCCC1N1CCC(c2ccccc2)CC1 (configuration not stated)	> 20 µM	> 20 µM
CCN(CC)CCOC(c1ccccc1)c1ccccc1	> 20 µM	> 20 µM
CCCCCCCC(=O)N[C@H](CN1CCCC1)[C@H](O)c1ccc2c(c1)OCCO2	> 20 µM	> 20 µM
C=C(C)[C@@H]1[C@H]2OC(=O)[C@H]1[C@]1(O)C[C@H]3O[C@]34C(=O)O[C@H]2[C@]14C	> 20 µM	> 20 µM
CCNC(=O)C[C@H]1N=C(c2ccc(Cl)cc2)c2cc(OC)ccc2-n2c(C)nnc21	> 20 µM	> 20 µM
c1ccc2c3c([nH]c2c1)[C@H]1[C@H]2CC[C@H]([C@@H]4CCCN[C@@H]42)N1CC3	> 20 µM	> 20 µM
CCC[C@H](NC(=O)[C@@H]1[C@H]2CCC[C@H]2CN1C(=O)[C@@H](NC(=O)[C@@H](NC(=O)c1cnccn1)C1CCCCC1)C(C)(C)C)C(=O)C(=O)NC1CC1	> 20 µM	> 20 µM
CN1CCc2cc3c(c4c2[C@@H]1Cc1ccccc1-4)OCO3	> 20 µM	> 20 µM
CC(C)(C)C#Cc1cc(N(C(=O)[C@H]2CC[C@H](C)CC2)[C@H]2CC[C@@H](O)CC2)c(C(=O)O)s1	> 20 µM	> 20 µM

SMILES	IC50	IC50 (read-out: pIC50 (converted))
Cc1nnc(C(=O)NC(C)(C)c2nc(C(=O)NCc3ccc(F)cc3)c(O)c(=O)n2C)o1	> 20 µM	> 20 µM
O=C(O)COc1ccc(C(=O)c2cccs2)c(Cl)c1Cl	> 20 µM	> 20 µM
COC(=O)CCC(C)C1CCC2C3CC[C@@H]4C[C@H](O)CC[C@]4(C)C3C[C@H](O)[C@]12C (some centres not stated)	> 20 µM	> 20 µM
CC(=O)N(O)C/C=C/c1cccc(Oc2ccccc2)c1	> 20 µM	> 20 µM
c1ccc2c(c1)CN1CCCC1=N2	> 20 µM	> 20 µM
O=C1Nc2ccc(Cl)cc2C(/C=C/C2CC2)(C(F)(F)F)N1 (configuration not stated)	> 20 µM	> 20 µM
CC(=O)OC[C@H]1O[C@@H](S)[C@H](OC(C)=O)[C@@H](OC(C)=O)[C@@H]1OC(C)=O	> 20 µM	> 20 µM
NC(=O)C1CC2(NC(=O)NC2=O)c2cc(F)ccc2O1 (configuration not stated)	> 20 µM	> 20 µM
CCn1cnc(C(=O)NC)c1C(=O)NC	> 20 µM	> 20 µM
C=C(NC(=O)C(=C)NC(=O)c1csc(C2=N[C@H]3c4csc(n4)[C@H]4NC(=O)c5csc(n5)[C@H]([C@@](C)(O)[C@@H](C)O)NC(=O)[C@H]5CSC(=N5)/C(=C\C)NC(=O)[C@H]([C@@H](C)O)NC(=O)c5csc(n5)[C@]3(CC2)NC(=O)[C@H](C)NC(=O)C(=C)NC(=O)[C@H](C)NC(=O)[C@H](C(C)CC)N[C@@H]2C=Cc3c([C@H](C)O)cc(nc3[C@H]2O)C(=O)O[C@@H]4C)n1)C(N)=O (some centres not stated)	> 20 µM	> 20 µM
O=C(O)[C@]1(O)C[C@H](O)[C@@H](O)[C@@H](O)C1	> 20 µM	> 20 µM
CC(=O)OC1CC2CCC3C(CCC4(C)C3CC(N3CC[N+](C)(C)CC3)C4OC(C)=O)C2(C)CC1N1CC[N+](C)(C)CC1 (configuration not stated)	> 20 µM	> 20 µM
CNc1ccc(-c2ccc3cc(OC[C@H](O)CF)ccc3n2)cc1	> 20 µM	> 20 µM
CCCN1CCCC2Cc3nc(N)ncc3CC21 (configuration not stated)	> 20 µM	> 20 µM
[2H]c1c([2H])c(-c2ccc(F)cc2F)c([2H])c(C(=O)O)c1O	> 20 µM	> 20 µM
O=C(O)[C@H]1CCCC[C@]1(O)c1ccccc1	> 20 µM	> 20 µM
CC#CC(=O)N1CCC[C@@H]1c1nc(-c2ccc(C(=O)Nc3ccccn3)cc2)c2c(N)nccn12	> 20 µM	> 20 µM
C[C@@H](CC(C(N)=O)(c1ccccc1)c1ccccc1)N(C)C	> 20 µM	> 20 µM
Cn1cc(Nc2nccc(N3CC4CCC(C3)N4C(=O)[C@@H]3CC3(F)F)n2)cn1	> 20 µM	> 20 µM
COCCOC(=O)C1=C(C)NC(C)=C(C(=O)OCC=Cc2ccccc2)C1c1cccc([N+](=O)[O-])c1 (configuration not stated)	> 20 µM	> 20 µM
CC(C)NCC(O)c1ccc([N+](=O)O)cc1 (configuration not stated)	> 20 µM	> 20 µM
C#CCC/C(O)=C(\C#N)C(=O)Nc1ccc(C(F)(F)F)cc1	> 20 µM	> 20 µM
C[C@]12CC[C@H](O)C[C@@H]1CC[C@@H]1C2CC[C@]2(C)[C@@H](C3=CC(=O)OC3)CC[C@]12O (some centres not stated)	> 20 µM	> 20 µM
O[C@H]1[C@H](O)[C@@H](O)O[C@H]2COC(c3ccccc3)O[C@H]12 (some centres not stated)	> 20 µM	> 20 µM

SMILES	IC50	IC50 (read-out: pIC50 (converted))
CCC[N+]12C3C[C@@H]([C@H](CC)[C@H]1O)[C@H]1[C@H](O)[C@]4(C[C@@H]12)c1ccccc1N(C)[C@@H]34	> 20 µM	> 20 µM
COc1c(N2CCC/C(=C(/F)CN)C2)c(F)cc2c(=O)c(C(=O)O)cn(C3CC3)c12	> 20 µM	> 20 µM
CCN(CC)CC/C(=N\OC(=O)Nc1ccc(OC)cc1)c1ccccc1	> 20 µM	> 20 µM
COC1CCC2(C)C(=CCC3C2CCC2(C)C(C(C)=O)CCC32)C1 (configuration not stated)	> 20 µM	> 20 µM
CC(C)OC(=O)[C@H](C)N[P@](=S)(OC[C@H]1O[C@@H](n2ccc(=O)[nH]c2=O)[C@](C)(O)[C@@H]1O)Oc1ccccc1	> 20 µM	> 20 µM
NC(=O)OC[C@@H](N)Cc1ccccc1	> 20 µM	> 20 µM
CC(CCC(=O)NCCS(=O)(=O)O)C1CCC2C3C[C@H](O)[C@@H]4C[C@H](O)CC[C@]4(C)C3CC[C@]12C (some centres not stated)	> 20 µM	> 20 µM
NC(=O)OC[C@H](O)c1ccccc1Cl	> 20 µM	> 20 µM
CC[C@H]1OC(=O)C[C@@H](O)[C@H](C)[C@@H](O[C@@H]2O[C@H](C)[C@@H](O[C@H]3C[C@@](C)(O)[C@@H](O)[C@H](C)O3)[C@H](N(C)C)[C@H]2O)[C@@H](CC=O)C[C@@H](C)C(=O)/C=C\C(C)=C/[C@@H]1CO[C@@H]1O[C@H](C)[C@@H](O)[C@@H](OC)[C@H]1OC	> 20 µM	> 20 µM
CC(C)n1c(/C=C/[C@@H](O)C[C@@H](O)CC(=O)O)c(-c2ccc(F)cc2)c2ccccc21.CC(C)n1c(/C=C/[C@H](O)C[C@H](O)CC(=O)O)c(-c2ccc(F)cc2)c2ccccc21	> 20 µM	> 20 µM
O=C(OC1C[C@@H]2CC3C[C@@H](C1)N2CC3=O)c1c[nH]c2ccccc12 (some centres not stated)	> 20 µM	> 20 µM
CCCCC(C)(O)C/C=C/C1C(O)CC(=O)C1CC/C=C/CCC(=O)OC (configuration not stated)	> 20 µM	> 20 µM
CCn1c(=Cc2cccc[n+]2CC)sc(=C2Sc3ccccc3N2C)c1=O	> 20 µM	> 20 µM
CCC1C(=O)Nc2ccc(F)cc2N1C(=O)OC(C)C (configuration not stated)	> 20 µM	> 20 µM
CC(=C(CCO)SSCC1CCCO1)N(C=O)Cc1cnc(C)nc1N (configuration not stated)	> 20 µM	> 20 µM
CN1CCN2c3ccccc3Cn3cccc3[C@@H]2C1	> 20 µM	> 20 µM
CC[C@@H](C)C(=O)O[C@H]1[C@H](O)[C@H]2[C@@H](CN3C[C@@H](C)CC[C@H]3[C@@]2(C)O)[C@@H]2C[C@]34O[C@@]5(O)[C@@H](OC(=O)[C@](C)(O)CC)CC[C@@]3(C)[C@@H]5[C@@H](OC(C)=O)[C@@H](OC(C)=O)[C@H]4[C@@]21O	> 20 µM	> 20 µM
C[C@H]1CCC[C@H](C)N1CCCCNC(=O)C(Oc1ccccc1)c1ccccc1 (some centres not stated)	> 20 µM	> 20 µM
C[C@@]1(c2nc3cccc(C(N)=O)c3[nH]2)CCCN1	> 20 µM	> 20 µM
O=C(O)C1(c2ccc3c(c2)OC[C@H](Cc2ccc(-c4ccccc4)cc2)[C@H]3O)CCCC1	> 20 µM	> 20 µM
CC(=O)N[C@@H](CC(C)C)C(=O)O	> 20 µM	> 20 µM
N[C@@]1(C(=O)O)CC[C@H]2[C@H](C(=O)O)[C@H]21	> 20 µM	> 20 µM
CNC=O	> 20 µM	> 20 µM
